≈ marks a conversion by molar mass, not a printed value. Where “and” joins values, the source holds several entries; their conditions need not be identical. Identical values can stand only once. Like-named read-outs stand apart in the source and are kept apart here.
How the values were obtained:
[1] = system: eight common bacterial strains; assay: Antibacterial screening, microdilution broth panel method; type: cell-based; conditions: all tested bacterial strains, pH 7.0; read-out: Minimum Inhibitory Concentrations Bacteria
[2] = Experimental lipophilicity logk by RP-HPLC; conditions: methanol 70% / water 30%, C18
Description: These values were compared with logk, an experimentally measured lipophilicity parameter derived from retention times acquired by RP-HPLC.
Experimental lipophilicity parameter logk values were determined using HPLC method. […] The separation process was handled by Agilent ChemStation, version B.04.02 extended with spectral module (Agilent Technologies Inc.). A mixture of methanol (HPLC grade, 70%) and water (HPLC-Milli-Q Grade, 30%) was used as mobile phase. The total flow rate of the column was set to 1.0 mL/min, injection 20 μL, column temperature 30 °C. 210 nm as detection wavelength and 270 nm as monitor wavelength were chosen. A methanolic solution of KI was used for the determination of dead time (TD). Retention times (TR) of synthesized compounds were measured in minutes. Capacity factors k were calculated according to formula k = (TR − TD)/TD, where TR is the retention time of the solute and TD denotes the dead time obtained via an unretained analyte (KI). Logk, which was calculated from the capacity factor k, is used as the lipophilicity index.

[3] = system: Mycobacterium tuberculosis H37Rv; assay: Antimycobacterial screening, microdilution broth panel method with resazurin (Alamar blue); type: cell-based; conditions: for MIC: read-out: Minimum Inhibitory Concentrations M. tbc H37Rv
[4] = system: Mycobacterium smegmatis CCM 4622 (ATCC 607); assay: Mycobacterium smegmatis screening, microdilution broth panel method with resazurin; type: cell-based; conditions: Middlebrook 7H9 broth, 48 h incubation; for MIC: Mycolicibacterium smegmatis, 48 h, read-out: Minimum Inhibitory Concentrations M. smegmatis
M. kansasii My 235/80 = assay: Antimycobacterial screening, microdilution broth panel method with resazurin (Alamar blue); type: cell-based; conditions: Mycobacterium kansasii, MY235/80; pH 5.6, 5–7 days incubation
M. tbc H37Rv = conditions: cited from earlier work
in vitro = conditions: human, IC50 (cytotoxicity), HepG2, 24 h incubation
[5] = system: Enterococcus faecalis J 14365/08; assay: Antibacterial screening, microdilution broth panel method; type: cell-based; conditions: J14365/08; Enterococcus faecalis J 14365/08, pH 7.0; read-out: Minimum Inhibitory Concentrations Bacteria, EF
HepG2 cell line = conditions: read-out: IC50 (cytotoxicity); HepG2, 24 h incubation
[6] = system: Staphylococcus aureus CCM 4516/08; assay: Antibacterial screening, microdilution broth panel method; type: cell-based
[7] = Mycobacterium tuberculosis, H37RV, 336 h, pH 5.6, Sula's broth pH 5.6, 14 days incubation
[8] = Mycobacterium tuberculosis, H37RV, 336 h, pH 5.6, Sula's broth pH 5.6, 14 days incubation, n.a. = not active

Row | Compound | MIC [1] | Logk [2] | MIC [3, 7] | MIC [4] | other results
1 | NC(=O)c1nccnc1NCc1ccccc1Cl [Compound 10, 3-[(2-Chlorobenzyl)amino]pyrazine-2-carboxamide] | > 500 µM | 0.441 | > 100 µg/mL | ≥ 500 µg/mL | –
2 | NNC(=O)c1ccncc1 [INH, isoniazid, reference compound] | – | – | 0.39 µg/mL | – | MIC [3, 8]: 3 µM; Minimum Inhibitory Concentrations M. smegmatis [4]: 7.81 to 15.63 µg/mL; Minimum Inhibitory Concentrations M. smegmatis ([4]; listed as isoniazid): 15.63 µg/mL; MIC (M. kansasii My 235/80): 1.56 µg/mL to 12.5 µg/mL and 11 µM to 91 µM
3 | N#Cc1cnc(C(N)=O)c(NCc2ccc(N)cc2)n1 [Compound 9-A] | – | – | – | – | MIC against M. tbc H37Rv (M. tbc H37Rv; series A and B): 12.5 µg/mL and 47 µM
4 | O=C(O)c1cn(C2CC2)c2cc(N3CCNCC3)c(F)cc2c1=O [CPX, ciprofloxacin, reference compound] | – | – | – | 0.1 µg/mL (≈ 0.302 µM) | Minimum Inhibitory Concentrations M. smegmatis [4]: 0.10 to 0.20 µg/mL
5 | Cc1nc(C#N)c(C#N)nc1NCc1ccc(N)cc1 [Compound 9-C] | – | – | – | – | MIC against M. tbc H37Rv (M. tbc H37Rv; series C): 25 µg/mL and 95 µM
6 | NC(=O)c1nccnc1NCc1cccc([N+](=O)[O-])c1 [Compound 15, 3-[(3-Nitrobenzyl)amino]pyrazine-2-carboxamide] | > 500 µM | 0.101 | > 100 µg/mL | ≥ 500 µg/mL | –
7 | NC(=O)c1nccnc1NCc1ccc(C(F)(F)F)cc1 [Compound 12, 3-[(4-Trifluoromethylbenzyl)amino]pyrazine-2-carboxamide] | – | 0.502 | – | ≥ 500 µg/mL | IC50 (in vitro): 57.3 µM; MIC [5]: 125 µM (≈ 37 µg/mL)
8 | NC(=O)c1nccnc1NCc1ccccc1C(F)(F)F [Compound 13, 3-[(2-Trifluoromethylbenzyl)amino]pyrazine-2-carboxamide] | – | 0.495 | > 100 µg/mL | ≥ 500 µg/mL | MIC [5]: 125 µM (≈ 37 µg/mL)
9 | Cc1ccc(CNc2nccnc2C(N)=O)cc1 [Compound 8, 3-[(4-Methylbenzyl)amino]pyrazine-2-carboxamide] | > 500 µM | 0.441 | 1.56 to 12.5 µg/mL | ≥ 500 µg/mL | IC50 (in vitro): ≥ 250 µM; MIC [3, 8]: 6 to 42 µM; Minimum Inhibitory Concentrations M. tbc H37Rv ([3]; Sula's broth pH 5.6, 14 days incubation): 1.56 µg/mL; MIC ([3]; Sula's broth pH 5.6, 14 days incubation, n.a. = not active): 6 µM; IC50 (HepG2 cell line): > 250 µM
10 | Cc1nc(C#N)c(C#N)nc1NCc1ccccc1 [Compound 1-C] | – | – | – | – | MIC against M. tbc H37Rv (M. tbc H37Rv; series C): 25 µg/mL and 100 µM
11 | Cc1ccc(CNc2nc(C#N)cnc2C#N)cc1 [Compound 8-B] | – | – | – | – | MIC against M. tbc H37Rv (M. tbc H37Rv; series A and B): 6.25 µg/mL and 25 µM
12 | NC(=O)c1nccnc1NCc1cccc(Cl)c1 [Compound 2, 3-[(3-Chlorobenzyl)amino]pyrazine-2-carboxamide] | > 500 µM | 0.373 | > 100 µg/mL | ≥ 500 µg/mL | –
13 | NC(=O)c1nccnc1NCc1cccc(C(F)(F)F)c1 [Compound 4, 3-[(3-Trifluoromethylbenzyl)amino]pyrazine-2-carboxamide] | – | 0.403 | – | 250 µg/mL (≈ 844 µM) | IC50 (in vitro): 76.5 µM; Minimum Inhibitory Concentrations Bacteria, SA ([6]; Staphylococcus aureus CCM 4516/08, pH 7.0): 31.25 SA ^a µM; MIC ([6]; Staphylococcus aureus, CCM4516, pH 7, Staphylococcus aureus CCM 4516/08, pH 7.0, read-out: Minimum Inhibitory Concentrations Bacteria, SA): 31.2 µM (≈ 9.26 µg/mL); MIC (M. kansasii My 235/80): 25 µg/mL and 84 µM
14 | NC(=O)c1nccnc1NCc1ccc(Cl)cc1 [Compound 5, 3-[(4-Chlorobenzyl)amino]pyrazine-2-carboxamide] | – | 0.373 | > 100 µg/mL | 250 µg/mL (≈ 952 µM) | –
15 | Cc1nc(C#N)c(C#N)nc1NCc1cccc(C(F)(F)F)c1 [Compound 4-C] | – | – | – | – | MIC against M. tbc H37Rv (M. tbc H37Rv; series C): 12.5 µg/mL and 39 µM
16 | COc1ccc(CNc2nccnc2C(N)=O)cc1 [Compound 7, 3-[(4-Methoxybenzyl)amino]pyrazine-2-carboxamide] | > 500 µM | 0.194 | > 100 µg/mL | ≥ 500 µg/mL | –
17 | Cc1ccc(CNc2nc(C#N)c(C#N)nc2C)cc1 [Compound 8-C] | – | – | – | – | MIC against M. tbc H37Rv (M. tbc H37Rv; series C): 25 µg/mL and 95 µM
18 | NC(=O)c1nccnc1NCc1ccccc1 [Compound 1, 3-(Benzylamino)pyrazine-2-carboxamide] | > 500 µM | 0.215 | ≥ 100 µg/mL | ≥ 500 µg/mL | –
19 | N#Cc1cnc(C(N)=O)c(NCc2cccc(C(F)(F)F)c2)n1 [Compound 4-A] | – | – | – | – | MIC against M. tbc H37Rv (M. tbc H37Rv; series A and B): 25 µg/mL and 78 µM
20 | CO[C@H]1/C=C/O[C@@]2(C)Oc3c(C)c(O)c4c(O)c(c(/C=N/N5CCN(C)CC5)c(O)c4c3C2=O)NC(=O)/C(C)=C\C=C\[C@H](C)[C@H](O)[C@@H](C)[C@@H](O)[C@@H](C)[C@H](OC(C)=O)[C@@H]1C [RFM, rifampicin, reference compound] | – | – | – | 0.39 µg/mL (≈ 0.474 µM) | Minimum Inhibitory Concentrations M. smegmatis [4]: 0.78 to 1.56 µg/mL
21 | Cc1ccccc1CNc1nccnc1C(N)=O [Compound 6, 3-[(2-Methylbenzyl)amino]pyrazine-2-carboxamide] | > 500 µM | 0.320 | > 100 µg/mL | ≥ 500 µg/mL | –
22 | NC(=O)c1nccnc1NCc1ccc(N)cc1 [Compound 9, 3-[(4-Aminobenzyl)amino]pyrazine-2-carboxamide] | > 500 µM | −0.313 | – | 250 µg/mL (≈ 1030 µM) | IC50 (in vitro): > 750 µM
23 | NC(=O)c1nccnc1NCc1ccccc1F [Compound 11, 3-[(2-Fluorobenzyl)amino]pyrazine-2-carboxamide] | – | 0.248 | > 100 µg/mL | ≥ 500 µg/mL | MIC [5]: 125 µM (≈ 30.8 µg/mL)
24 | NC(=O)c1cnccn1 [PZA, pyrazinamide] | – | – | 12.5 µg/mL | ≥ 500 µg/mL | MIC [3, 8]: 102 µM
25 | N#Cc1cnc(C#N)c(NCc2ccccc2)n1 [Compound 1-B] | – | – | – | – | MIC against M. tbc H37Rv (M. tbc H37Rv; series A and B): 12.5 µg/mL (≈ 53.1 µM)
26 | COc1ccc(CNc2nccnc2C(N)=O)c(OC)c1 [Compound 14, 3-[(2,4-Dimethoxybenzyl)amino]pyrazine-2-carboxamide] | – | 0.274 | > 100 µg/mL | ≥ 500 µg/mL | MIC [5]: 62.5 µM (≈ 18 µg/mL)
27 | NC(=O)c1nccnc1NCc1ccc(Cl)c(Cl)c1 [Compound 3, 3-[(3,4-Dichlorobenzyl)amino]pyrazine-2-carboxamide] | > 500 µM | 0.470 | > 100 µg/mL | ≥ 500 µg/mL | –
28 | N#Cc1cnc(C#N)c(NCc2ccc(N)cc2)n1 [Compound 9-B] | – | – | – | – | MIC against M. tbc H37Rv (M. tbc H37Rv; series A and B): 25 µg/mL and 100 µM
29 | Cc1ccc(CNc2nc(C#N)cnc2C(N)=O)cc1 [Compound 8-A] | – | – | – | – | MIC against M. tbc H37Rv (M. tbc H37Rv; series A and B): 12.5 µg/mL and 47 µM
